# Measured values taken from ChEMBL document CHEMBL1126344, “Substituted penta- and hexapeptides as potent inhibitors of herpes simplex virus type 2 ribonucleotide reductase” (Bioorg Med Chem Lett, 1992).
# Starred links: 1 amine or outer side, 2 acyl side, 3 side chain; linkers in the order of their positions; H or OH if unused. Non-standard residues stand in square brackets, D forms with d. Residues, ends and D or L forms follow the SMILES beside them. X1 = O=C([C@H](Cc1ccc(O)cc1)N(Cc1cccc(Oc2ccccc2)c1)[*:1])[*:2]; X2 = O=C([C@H](Cc1ccc(O)cc1)N(c1ccc(-c2ccccc2)cc1)[*:1])[*:2]; X3 = O=C([C@H](Cc1ccc(O)cc1)N(Cc1ccsc1)[*:1])[*:2]; NBnTyr = O=C(O)[C@H](Cc1ccc(O)cc1)NCc1ccccc1; tBuAla = CC(C)(C)C[C@H](N)C(=O)O; αMeL = CC(C)C[C@](C)(N)C(=O)O; Nva = CCC[C@H](N)C(=O)O
# Tests used:
# [1] = system: Human alphaherpesvirus 2; experiment: Relative potency to that of YAGAVVNDL against Herpes Simplex Virus type 2 ribonucleotide reductase
# [2] = Inhibitory activity of YAGAVVNDL against Herpes Simplex Virus type 2 (HSV-2) ribonucleotide reductase determined as control; design: species or system Human alphaherpesvirus 2
# [3] = target: Ribonucleotide reductase (Herpes simplex virus type 2); experiment: Compound was tested in vitro for inhibitory activity against Herpes Simplex Virus type 2 ribonucleotide reductase
# [4] = The compound was tested in vitro for inhibitory activity against Herpes Simplex Virus type 2 ribonucleotide reductase; design: species or system Human alphaherpesvirus 2
SMILES,Relative potency [1],IC50 [2] [µM],IC50 [3] [µM],IC50 [4] [µM]
CCC[C@H](NC(=O)[C@H](CC(=O)O)NC(=O)[C@H](CC(N)=O)NC(=O)[C@@H](NC(=O)[C@@H](NC(=O)[C@@H](N)Cc1ccc(O)cc1)C(C)C)C(C)C)C(=O)O (H-YVVND[Nva]-OH),0.16,25,–,160
CC(C)[C@H](NC(=O)[C@@H](NC(=O)[C@@H](N)Cc1ccc(O)cc1)C(C)C)C(=O)N[C@@H](CC(N)=O)C(=O)N[C@@H](CC(=O)O)C(=O)N[C@@H](CC(C)(C)C)C(=O)O (H-YVVND[tBuAla]-OH),3.3,43,–,13
CC(C)C[C@](C)(NC(=O)[C@H](CC(=O)O)NC(=O)[C@H](CC(N)=O)NC(=O)[C@@H](NC(=O)[C@@H](NC(=O)[C@@H](N)Cc1ccc(O)cc1)C(C)C)C(C)C)C(=O)O (H-YVVND[αMeL]-OH),0.12,38,–,320
CC(C)[C@H](NC(=O)[C@H](Cc1ccc(O)cc1)NCc1ccccc1)C(=O)N[C@H](C(=O)N[C@@H](CC(N)=O)C(=O)N[C@@H](CC(=O)O)C(=O)N[C@@H](CC(C)(C)C)C(=O)O)C(C)C (H-[NBnTyr]VVND[tBuAla]-OH),23,35,–,1.5
CC(C)C[C@H](NC(=O)[C@H](CC(=O)O)NC(=O)[C@H](CC(N)=O)NC(=O)[C@@H](NC(=O)[C@@H](NC(=O)[C@H](Cc1ccc(O)cc1)NCc1cccc(Oc2ccccc2)c1)C(C)C)C(C)C)C(=O)O (H-[X1]VVNDL-OH),3.3,40,–,12
CC(C)C[C@H](NC(=O)[C@H](CC(=O)O)NC(=O)[C@H](CC(N)=O)NC(=O)[C@@H](NC(=O)[C@@H](NC(=O)[C@H](Cc1ccc(O)cc1)NCc1ccsc1)C(C)C)C(C)C)C(=O)O (H-[X3]VVNDL-OH),4,80,–,20

# Continued by falling IC50 [2], values first:
Relative potency [1],IC50 [2] [µM],IC50 [3] [µM],IC50 [4] [µM],SMILES
1.1,34,–,32,CC(C)C[C@H](NC(=O)[C@H](CC(=O)O)NC(=O)[C@H](CC(N)=O)NC(=O)[C@@H](NC(=O)[C@@H](NC(=O)[C@H](Cc1ccc(O)cc1)Nc1ccc(-c2ccccc2)cc1)C(C)C)C(C)C)C(=O)O (H-[X2]VVNDL-OH)
6,30,5,–,CC(C)C[C@H](NC(=O)[C@H](CC(=O)O)NC(=O)[C@H](CC(N)=O)NC(=O)[C@@H](NC(=O)[C@@H](NC(=O)Cc1ccc2ccccc2c1)C(C)C)C(C)C)C(=O)O
5,30,6,–,CC(C)C[C@H](NC(=O)[C@H](CC(=O)O)NC(=O)[C@H](CC(N)=O)NC(=O)[C@@H](NC(=O)[C@@H](NC(=O)[C@H](Cc1ccc(O)cc1)NCc1ccccc1)C(C)C)C(C)C)C(=O)O (H-[NBnTyr]VVNDL-OH)
60,18,–,0.3,CC(C)[C@H](NC(=O)[C@H](Cc1ccc(O)cc1)NCc1ccccc1)C(=O)N[C@H](C(=O)N[C@@H](CC(=O)N(C)C)C(=O)N[C@@H](CC(=O)O)C(=O)N[C@@H](CC(C)(C)C)C(=O)O)C(C)C (H-[NBnTyr]VVD(NMe2)D[tBuAla]-OH)
–,9.5,0.45,–,CC(C)C[C@H](NC(=O)[C@H](CC(=O)O)NC(=O)[C@H](CC(N)=O)NC(=O)[C@@H](NC(=O)[C@@H](NC(=O)C(Cc1ccccc1)Cc1ccc(O)cc1)C(C)C)C(C)C)C(=O)O (stereo in doubt; form 1)
